Assays:
[1] = target: PDE4B1 (Homo sapiens (Human), UniProt Q07343); experiment: Inhibition of PDE4 activity, [3H]cAMP SPA enzyme assay with recombinant PDE4B1; type: biochemical; conditions: recombinant PDE4B1 expressed in SF21 cells, 0.5 μM cAMP, 37° C.
Procedure: Method for Measuring Inhibition of PDE4 Activity
The PDE4B1 (GB no. L20966) was a gift of Prof. M. Conti (Stanford University, USA). It was amplified from the original plasmid (pCMV5) via PCR with primers Rb18 (5′-[…]-3′) and Rb10 (5′-[…]-3′) and cloned into the pCR-Bac vector (Invitrogen, Groningen, NL).
The recombinant baculovirus was prepared by means of homologous recombination in SF9 insect cells. The expression plasmids were cotransfected with Baculo-Gold DNA (Pharmingen, Hamburg) using a standard protocol (Pharmingen, Hamburg). Wt virus-free recombinant virus supernatants were selected using plaque assay methods. After that, high-titre virus supernatants were prepared by amplifying 3 times. PDE4B1 was expressed in SF21 cells by infecting 2×10^6 cells/ml with an MOI (multiplicity of infection) between 1 and 10 in the serum-free medium Insect Express Sf9-S2 (PAA, Pasching, Austria). The cells were cultured at 28° C. for 48-72 hours, after which they were pelleted for 5-10 min at 1000×g and 4° C.
The SF21 insect cells were resuspended, at a concentration of approx. 10^7 cells/ml, in ice-cold (4° C.) homogenization buffer (20 mM Tris, pH 8.2, containing the following additions: 140 mM NaCl, 3.8 mM KCl, 1 mM EGTA, 1 mM MgCl2, 10 mM β-mercaptoethanol, 2 mM benzamidine, 0.4 mM Pefablock, […] leupeptin, 10 μM pepstatin A, 5 μM trypsin inhibitor) and disrupted by ultrasonication. The homogenate was then centrifuged for 10 min at 1000×g and the supernatant was stored at −80° C. until subsequent use (see below). The protein content was determined by the Bradford method (BioRad, Munich) using BSA as the standard.
PDE4B1 activity was inhibited by the compounds according to the invention in a modified SPA (scintillation proximity assay) test, supplied by Amersham Biosciences (see procedural instructions “phosphodiesterase [3H]cAMP SPA enzyme assay, code TRKQ 7090”), carried out in 96-well microtitre plates (MTP's). The test volume is 100 μl and contains 20 mM Tris buffer (pH 7.4), 0.1 mg/ml of BSA, 5 mM Mg^2+, 0.5 μM cAMP (including about 50,000 cpm of [3H]cAMP), 1 μl of the respective substance dilution in DMSO and sufficient recombinant PDE (1000×g supernatant, see above) to ensure that 10-20% of the cAMP is converted under the said experimental conditions. […] After a preincubation of 5 min at 37° C., the reaction is started by adding the substrate (cAMP) and the assays are incubated for a further 15 min; after that, they are stopped by adding SPA beads (50 μl). In accordance with the manufacturer's instructions, the SPA beads had previously been resuspended in water, but were then diluted 1:3 (v/v) in water; the diluted solution also contains 3 mM IBMX to ensure a complete PDE activity stop. After the beads have been sedimented (>30 min), the MTP's are analyzed in commercially available luminescence detection devices. The corresponding IC50 values of the compounds for the inhibition of […] activity are determined from the concentration-effect curves by means of non-linear regression.
The inhibitory values determined for the compounds according to the invention follow from the following Table 1, in which the numbers of the compounds correspond to the numbers of the examples.

PDE4B1, sequence (Q07343 whole entry): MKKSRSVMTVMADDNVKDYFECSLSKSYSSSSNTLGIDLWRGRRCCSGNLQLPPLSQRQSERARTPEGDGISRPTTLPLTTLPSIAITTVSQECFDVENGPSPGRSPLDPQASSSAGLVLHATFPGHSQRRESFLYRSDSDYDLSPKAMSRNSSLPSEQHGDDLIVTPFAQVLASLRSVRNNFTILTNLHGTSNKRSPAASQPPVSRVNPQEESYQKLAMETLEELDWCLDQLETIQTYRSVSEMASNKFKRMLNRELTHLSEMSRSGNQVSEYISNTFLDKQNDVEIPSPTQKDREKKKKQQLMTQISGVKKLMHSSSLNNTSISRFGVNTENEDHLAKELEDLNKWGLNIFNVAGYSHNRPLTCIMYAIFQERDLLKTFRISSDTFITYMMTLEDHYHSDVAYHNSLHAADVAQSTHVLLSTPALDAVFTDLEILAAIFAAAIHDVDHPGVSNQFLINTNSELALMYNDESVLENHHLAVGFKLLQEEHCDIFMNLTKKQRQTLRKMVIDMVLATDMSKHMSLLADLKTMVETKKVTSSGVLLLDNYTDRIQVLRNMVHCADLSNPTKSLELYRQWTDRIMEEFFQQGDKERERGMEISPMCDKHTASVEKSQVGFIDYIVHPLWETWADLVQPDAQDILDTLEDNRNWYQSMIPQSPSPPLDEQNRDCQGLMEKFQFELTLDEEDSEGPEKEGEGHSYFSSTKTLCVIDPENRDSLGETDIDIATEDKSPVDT

| Compound | melting point [°C] | PDE4 Inhibition [measured as −logIC50 (mol/l)] [1] |
| --- | --- | --- |
| CC1(C)C(=O)N(C2CCN(C(=O)CN3C(=O)CCC3=O)CC2)N=C1c1ccc(OC(F)F)c(OCC2CC2)c1 [Compound 4, 1-[2-(4-{3-[3-(cyclopropylmethoxy)-4-(difluoromethoxy)phenyl]-4,4-dimethyl-5-oxo-4,5-dihydro-1H-pyrazol-1-yl}piperidin-1-yl)-2-oxoethyl]pyrrolidine-2,5-dione] |  | 7.74 −logIC50 (mol/l) |
| COc1ccc(C2=NN(C3CCN(C(=O)CN4C(=O)CCC4=O)CC3)C(=O)C2(C)C)c2c1OC(C)(C)C2 [Compound 8] |  | 8.53 −logIC50 (mol/l) |
| COc1ccc(C2=NN(C3CCN(C(=O)CN4C(=O)CCC4=O)CC3)C(=O)C2(C)C)c2c1OC1(CCCC1)C2 [Compound 9] |  | 8.23 −logIC50 (mol/l) |
| COc1ccc(C2=NN(C3CCN(C(=O)CN4C(=O)CCC4=O)CC3)C(=O)C23CCCC3)cc1OC [Compound 13, 1-(2-{4-[4-(3,4-dimethoxyphenyl)-1-oxo-2,3-diazaspiro[4.4]non-3-en-2-yl]piperidin-1-yl}-2-oxoethyl)pyrrolidine-2,5-dione] |  | 7.79 −logIC50 (mol/l) |
| COc1ccc(C2=NN(C3CCN(C(=O)CN4C(=O)c5ccccc5C4=O)CC3)C(=O)C2(C)C)cc1OC [Compound 14, 2-(2-{4-[3-(3,4-dimethoxyphenyl)-4,4-dimethyl-5-oxo-4,5-dihydro-1H-pyrazol-1-yl]piperidin-1-yl}-2-oxoethyl)-1H-isoindole-1,3(2H)-dione] |  | 9.06 −logIC50 (mol/l) |
| COc1ccc(C2=NN(C3CCN(C(=O)CN4CCCC4=O)CC3)C(=O)C2(C)C)cc1OC [Compound 16, 5-(3,4-dimethoxyphenyl)-4,4-dimethyl-2-{1-[(2-oxopyrrolidin-1-yl)acetyl]piperidin-4-yl}-2,4-dihydro-3H-pyrazol-3-one] | 125 to 131 | 7.48 −logIC50 (mol/l) |
| COc1ccc(C2=NN(C3CCN(C(=O)CN4C(=O)CS(=O)(=O)CC4=O)CC3)C(=O)C2(C)C)cc1OC [Compound 18, 4-(2-{-4-[3-(3,4-dimethoxyphenyl)-4,4-dimethyl-5-oxo-4,5-dihydro-1H-pyrazol-1-yl]piperidin-1-yl}-2-oxoethyl)thiomorpholine-3,5-dione 1,1-dioxide] | 146 to 148 | 8.42 −logIC50 (mol/l) |
| COc1ccc(C2=NN(C3CCN(C(=O)CN4C(=O)Cc5ccccc54)CC3)C(=O)C2(C)C)cc1OC [Compound 20, 1-(2-{4-[3-(3,4-Dimethoxy-phenyl)-4,4-dimethyl-5-oxo-4,5-dihydro-pyrazol-1-yl]-piperidin-1-yl}-2-oxo-ethyl)-1,3-dihydro-2H-indol-2-one] | 178 | 8.24 −logIC50 (mol/l) |

Other lines, results leading:

| melting point [°C] | PDE4 Inhibition [measured as −logIC50 (mol/l)] [1] | Compound |
| --- | --- | --- |
| 156 to 157 | 8.29 −logIC50 (mol/l) | COc1ccc(C2=NN(C3CCN(C(=O)CN4C(=O)COCC4=O)CC3)C(=O)C2(C)C)cc1OC [Compound 1, 4-(2-{4-[3-(3,4-dimethoxyphenyl)-4,4-dimethyl-5-oxo-4,5-dihydro-1H-pyrazol-1-yl]piperidin-1-yl}-2-oxoethyl)morpholine-3,5-dione] |
| 218 to 220 | 8.09 −logIC50 (mol/l) | COc1ccc(C2=NN(C3CCN(C(=O)CN4C(=O)CCC4=O)CC3)C(=O)C2(C)C)cc1OC [Compound 2, 1-(2-{4-[3-(3,4-dimethoxyphenyl)-4,4-dimethyl-5-oxo-4,5-dihydro-1H-pyrazol-1-yl]piperidin-1-yl}-2-oxoethyl)pyrrolidine-2,5-dione] |
|  | 7.75 −logIC50 (mol/l) | CCOc1ccc(C2=NN(C3CCN(C(=O)CN4C(=O)CCC4=O)CC3)C(=O)C2(C)C)cc1OCC [Compound 3, 1-(2-{-4-[3-(3,4-diethoxyphenyl)-4,4-dimethyl-5-oxo-4,5-dihydro-1H-pyrazol-1-yl]piperidin-1-yl}-2-oxoethyl)pyrrolidine-2,5-dione] |
| 129 to 131 | 7.15 −logIC50 (mol/l) | COc1ccc(C2=NN(C3CCN(C(=O)CN4C(=O)CCC4=O)CC3)C(=O)C2(C)C)cc1OCC1CC1 [Compound 5, 1-[2-(4-{3-[3-(cyclopropylmethoxy)-4-methoxyphenyl]-4,4-dimethyl-5-oxo-4,5-dihydro-1H-pyrazol-1-yl}piperidin-1-yl)-2-oxoethyl]pyrrolidine-2,5-dione] |
|  | 6.84 −logIC50 (mol/l) | COc1ccc(C2=NN(C3CCN(C(=O)CN4C(=O)CCC4=O)CC3)C(=O)C2(C)C)cc1OCC(F)(F)F [Compound 6, 1-[2-(4-{3-[4-methoxy-3-(2,2,2-trifluoroethoxy)phenyl]-4,4-dimethyl-5-oxo-4,5-dihydro-1H-pyrazol-1-yl}piperidin-1-yl)-2-oxoethyl]pyrrolidine-2,5-dione] |
|  | 7.65 −logIC50 (mol/l) | CCOc1cc(C2=NN(C3CCN(C(=O)CN4C(=O)CCC4=O)CC3)C(=O)C2(C)C)ccc1OC [Compound 7, 1-(2-{4-[3-(3-ethoxy-4-methoxyphenyl)-4,4-dimethyl-5-oxo-4,5-dihydro-1H-pyrazol-1-yl]piperidin-1-yl}-2-oxoethyl)pyrrolidine-2,5-dione] |
|  | 8.08 −logIC50 (mol/l) | CCCC1(C)C(=O)N(C2CCN(C(=O)CN3C(=O)CCC3=O)CC2)N=C1c1ccc(OC)c(OC)c1 (centres unmarked) [Compound 11, 1-(2-{4-[3-(3,4-dimethoxyphenyl)-4-methyl-5-oxo-4-propyl-4,5-dihydro-1H-pyrazol-1-yl]piperidin-1-yl}-2-oxoethyl)pyrrolidine-2,5-dione] |
|  | 7.46 −logIC50 (mol/l) | CCC1(C)C(=O)N(C2CCN(C(=O)CN3C(=O)CCC3=O)CC2)N=C1c1ccc(OC)c(OC)c1 (centres unmarked) [Compound 12, 1-(2-{4-[3-(3,4-dimethoxyphenyl)-4-ethyl-4-methyl-5-oxo-4,5-dihydro-1H-pyrazol-1-yl]piperidin-1-yl}-2-oxoethyl)pyrrolidine-2,5-dione] |
|  | 7.90 −logIC50 (mol/l) | COc1ccc(C2=NN(C3CCN(C(=O)CN4C(=O)CCCC4=O)CC3)C(=O)C2(C)C)cc1OC [Compound 15, 1-(2-{4-[3-(3,4-Dimethoxy-phenyl)-4,4-dimethyl-5-oxo-4,5-dihydro-pyrazol-1-yl]-piperidin-1-yl}-2-oxo-ethyl)-piperidine-2,6-dione] |
|  | 8.27 −logIC50 (mol/l) | COc1ccc(C2=NN(C3CCN(C(=O)CN4C(=O)CSCC4=O)CC3)C(=O)C2(C)C)cc1OC [Compound 17, 4-(2-{4-[3-(3,4-dimethoxyphenyl)-4,4-dimethyl-5-oxo-4,5-dihydro-1′-1-pyrazol-1-yl]piperidin-1-yl}-2-oxoethyl)thiomorpholine-3,5-dione] |
| 207 to 209 | 7.48 −logIC50 (mol/l) | COc1ccc(C2=NN(C3CCN(C(=O)CCN4C(=O)CCC4=O)CC3)C(=O)C2(C)C)cc1OC [Compound 19, 1-(3-{4-[3-(3,4-Dimethoxy-phenyl)-4,4-dimethyl-5-oxo-4,5-dihydro-pyrazol-1-yl]-piperidin-1-yl}-3-oxo-propyl)-pyrrolidine-2,5-dione] |

— US8865745B2, “Pyrazolone derivatives as PDE4 inhibitors” (Takeda GmbH, priority 2007, dated 2014)
